These results are taken from a melting point compilation (Tetko et al.).

Molecules are shown by their SMILES.

By melting point is commonly meant the temperature, or range, at which the solid turns liquid.

Consider `Cc1cc(C(C)(C)C)cc(C)c1CC1=NCCN1`, for which the melting point was found to be 131 °C. Compound `COc1cc(N)c(C(c2ccc(C)o2)c2ccc(C)o2)cc1OC` had a melting point of 79 °C. In turn, `COc1ccc(OC)c(N=C=S)c1` gave a melting point of 36 °C. As for `C=C(C)C(=C)C`, the melting point is -76 °C. Take `CCc1cccc(CC)c1N`: the melting point amounted to 3.5 °C. In turn, `CS(=O)(=O)CCO` had a melting point of 31 to 33 °C. `CCOP(=O)(OCC)Oc1c2cc(C(C)(C)C)cc1Cc1cc(C(C)(C)C)cc(c1O)Cc1cc(C(C)(C)C)cc(c1OP(=O)(OCC)OCC)Cc1cc(C(C)(C)C)cc(c1O)C2`: the melting point is 203 to 205 °C. As to `CCOC(=O)CCC(C)C1CCC2C3C(=O)CC4CC(O)CCC4(C)C3CC(O)C12C` (centres undefined), the melting point came to 161 °C.

In the case of `CC(C)CC1c2ccccc2-c2ccccc21`, the melting point is 45 °C. As for `NCc1cc2ccccc2s1`, the melting point was 58 to 59 °C. Take `O=C(c1ccc(F)cc1)c1ccc([N+](=O)[O-])cc1`: the melting point fell in the range of 87 to 89 °C.

`CC(=O)CC(c1ccc(Cl)cc1)c1c(O)c2ccccc2oc1=O` (centres undefined) gave a melting point of 170 °C. In the case of `Clc1ccc(CBr)cc1`, the melting point came out at 49 °C.

With `COc1ccc(NC(=S)NNC(=O)c2nn(-c3ccccc3)nc2C)cc1`, the melting point was in the range of 206 to 207 °C. Then `Fc1c(F)c(F)c(Br)c(Br)c1F`, with 12 °C. The compound `CCOP(=S)(OCC)Oc1cnccn1` registered a melting point of -1.7 °C. In the case of `CCOC(=O)c1cc(C)[nH]c(=S)c1C#N`, the melting point was determined as 214 °C. In turn, `NCC(O)C(O)C(O)C(O)CO` (centres undefined) displayed a melting point of 127 °C. The compound `CCNC(N)=O` yielded a melting point of 92.5 °C. The compound `CC(=O)NCc1ccccc1C(c1ccc(C)o1)c1ccc(C)o1` gave a melting point of 65 °C. Then `OC1CN2CCCC(O)C2C1O` (centres undefined), with 144 °C. To `C1OCC2(CO1)COCOC2` belongs 48.3 °C; to `Oc1cc(F)c(F)c(F)c1`, 54 °C. As to `Ic1ccccc1CN1CCOCC1`, the melting point is 46 to 48 °C.

Regarding `O=C(O)CCN1C(=O)c2ccccc2C1=O`, the melting point was found to be 152 °C. The compound `CC(C)N1CSc2nnc(-c3ccc([N+](=O)[O-])cc3)n2C1` gave a melting point of 260 °C. `Nc1ccc(C2=NN(c3ccccc3)C(=O)C2)cc1` gave a melting point of 160 °C. In turn, `O=C(O)CCCCc1cccs1` returned a melting point of 41 °C. With `Cc1cc(Sc2cc(C)c(O)c(C(C)(C)C)c2)cc(C(C)(C)C)c1O`, the melting point turned out to be 126 °C. `Cc1ccnc(N)c1[N+](=O)[O-]`: the melting point fell in the range of 136 to 141 °C.

`O=C(Nc1ccccc1C#CC#Cc1ccccc1NC(=O)c1ccccc1)c1ccccc1`: the melting point was found to be 211 °C.

For `CC(Cl)(Cl)C(=O)O`, the melting point is -5 °C.

The compound `OCCN1CCN(CCCN2c3ccccc3C=Cc3ccccc32)CC1` displayed a melting point of 100 °C. To `Cn1c(=O)c2c(ncn2CCO)n(C)c1=O` belongs 158 °C.

Consider `CC(=O)Oc1c(-c2ccccc2)[nH]c2cc3c(cc12)C(=O)C(c1ccccc1)=[N+]3[O-]`, for which the melting point is 246 °C. `NC(=O)Nc1ccc(Br)cc1` registered a melting point of 226 °C. The compound `O=C(OCCOCCOC(=O)c1ccccc1)c1ccccc1` gave a melting point of 33.5 °C.

`OC(c1ccccc1)C(O)(c1ccccc1)c1ccccc1` (centres undefined) showed a melting point of 163 °C. Take `ON=C(c1cccs1)c1cccs1`: the melting point lay within 134 to 136 °C.

For `OC1c2ccccc2C=Cc2ccccc21`, the melting point came to 126 °C. Compound `NC(=O)C(Br)CBr` (centres undefined) returned a melting point of 133 °C. Compound `CN(c1ccc2cc3ccc4c(c3nc2c1)COCN4)S(C)(=O)=O` registered a melting point of 300 °C. `CNC(C)C(O)c1ccc(O)cc1` (centres undefined): the melting point stood at 153 °C. Consider `N#Cc1c(N)oc(-c2ccco2)c1-c1ccco1`, for which the melting point was 183 to 185 °C. The compound `O=C1CCc2cc(Br)ccc2C1` gave a melting point of 70 to 76 °C. `CCOc1nc2ccccc2c(=O)n1N` returned a melting point of 97 to 98 °C. To `CCOC(=O)c1sc2nccnc2c1N` belongs 120 °C; to `NNC(=O)COc1ccccc1CSc1ccc(Cl)cc1`, 118 to 121 °C; to `O=[N+]([O-])c1ccc(/C=C/c2ccccc2O)c([N+](=O)[O-])c1`, 186 °C.

As for `ON=Cc1ccco1`, the melting point is 78 to 80 °C. Then `O=[N+]([O-])c1cccc(SSc2cccc([N+](=O)[O-])c2)c1`, with 84 °C; and `CCCCC(C=O)CC` (centres undefined), with -76 °C. To `CC(CCC(=O)O)C1CCC2C3C(=O)C(Br)C4CC(C(=O)O)CCC4(C)C3CC(C(=O)O)C12C` (centres undefined) belongs 229 to 230 °C; to `FC(F)(F)C(Cl)Cl`, -107 °C; to `COC(=O)c1ccc(Cl)nc1`, 86 °C. Then `Cl[Si](Cl)(Cl)CCC12CC3CC(CC(C3)C1)C2`, with 36 °C.

In turn, `O=C1CCCN1CCO` yielded a melting point of 20 °C. The compound `O=c1[nH]c(=O)n(-c2cccc(C(F)(F)F)c2)c2c1CCCC2` registered a melting point of 252 to 255 °C. In turn, `Cc1c(O)ccc(O)c1C` showed a melting point of 224 °C.

With `CC(=NO)c1ccc(F)cc1`, the melting point is 72 to 74 °C. For `O=C(Nc1ccccc1)OC1C=CC=CC(OC(=O)Nc2ccccc2)C1` (centres undefined), the melting point stood at 181 °C.

Compound `CC(C)=NOCCOC(=O)C(C)Oc1ccc(Oc2cnc3cc(Cl)ccc3n2)cc1` (centres undefined) came in with a melting point of 66.3 °C.

Consider `O=C(O)C1C2CCC(O2)C1C(=O)O` (centres undefined), for which the melting point was determined as 144 °C. For `CC(=O)Nc1ccc(S(=O)(=O)NCCO)cc1`, the melting point is 126 to 127 °C. For `Nc1cc(S(=O)(=O)F)ccc1Cl`, the melting point lay within 64 to 68 °C. Turning to `O=C1CC(=O)CC(c2ccc(F)cc2)C1`, the melting point lay within 174 to 178 °C. In the case of `CCS(N)(=O)=O`, the melting point turned out to be 60 °C. `CC1CCC(C(C)C)C(OC(=O)OC2CC(C)CCC2C(C)C)C1` (centres undefined) showed a melting point of 106 °C. In turn, `Brc1cnc(N2CCCC2)nc1OCc1ccccc1` gave a melting point of 107 °C. `CCC(CC)Nc1c([N+](=O)[O-])cc(C)c(C)c1[N+](=O)[O-]` came in with a melting point of 58 °C. Then `COC(=O)c1cnc(SCC(=O)NC(=O)Nc2ccc(Cl)cc2)n1C`, with 208 to 209 °C; and `O=Cc1cccc(-c2cncnc2)c1`, with 148 to 149 °C. Compound `COC(=O)C1=C(N)Oc2cc(C)n(CCc3ccccc3)c(=O)c2C1c1cccc([N+](=O)[O-])c1` (centres undefined) came in with a melting point of 216 °C. Regarding `N[C@H](CCO)C(=O)O`, the melting point stood at 205 °C.

In the case of `Cc1cc(=O)oc(C)c1C(=O)Oc1cccc(Cl)c1`, the melting point worked out at 96 °C. For `CCNC(N)=S`, the melting point stood at 112 °C. As for `Cc1c([N+](=O)[O-])cc(N)cc1[N+](=O)[O-]`, the melting point was 171 °C.

`Cc1ccc(C(N)=O)cc1[N+](=O)[O-]`: the melting point came to 166 °C. For the compound `O=C(Cl)c1cccc2ccsc12`, the melting point lay in the range of 84 to 86 °C.

`O=c1cc(-c2ccc(F)cc2)oc(-c2ccc(F)cc2)c1` registered a melting point of 168 to 169 °C. Then `CC(C)(O)C(N)C(=O)O` (racemic), with 200 to 202 °C; and `O=C1c2ccc(O)cc2C(=O)c2ccc(O)cc21`, with 300 °C. `Cc1c(C)c2c(c(C)c1O)CCC(C)(C(=O)O)O2` (centres undefined) showed a melting point of 189 °C. For `Nc1ccc(C(F)(F)F)cc1`, the melting point came to 38 °C.

Regarding `NC(c1ccc(F)cc1)C(N)c1ccc(F)cc1` (centres undefined), the melting point was 100 to 104 °C. In turn, `COc1cccc(C#N)c1` gave a melting point of 23 °C. As for `C/C(C#Cc1ccccc1)=C/C(C)=N/Nc1ccc([N+](=O)[O-])cc1[N+](=O)[O-]`, the melting point lay within 210 to 212 °C. `CNc1ccccc1C(N)=O`: the melting point lay in the range of 161 to 163 °C. To `Cc1nc(-c2ccc(N=C=O)cc2)cs1` belongs 80 to 81 °C; to `Cc1nc2cc(-c3ccccc3)ccc2o1`, 63 °C; to `CC12CCC(C(C(=O)O)C1=O)C2(C)C` (centres undefined), 128 °C. To `CC(C1CC1)C(O)(Cn1cncn1)c1ccc(Cl)cc1` (centres undefined) belongs 108 °C; to `O=C1NC(=O)C(=Cc2cccc(C=C3C(=O)NC(=O)NC3=O)c2)C(=O)N1`, 340 °C; to `CSc1ncccc1-c1nc(CCl)no1`, 110 to 111 °C. Compound `Cc1noc(-c2cccc(Br)c2)n1` gave a melting point of 95 to 96 °C. Then `Cc1ccc(S(=O)(=O)C2(C(=O)OC(C)C)CC2)cc1`, with 65.5 °C; and `Cc1cc(OC(=O)C(F)(F)F)c(C)cc1OC(=O)C(F)(F)F`, with 89 °C. The compound `N[C@@H](CSCC(=O)O)C(=O)O` yielded a melting point of 206 °C. Then `Cc1c(C)c(C)c(C(=O)Cc2ccccc2)c(C)c1C`, with 135 °C.

Turning to `CC12CCCC1C1CCC3CC(Cc4ccccc4)CCC3(C)C1CC2` (centres undefined), the melting point is 148 °C.

In turn, `NCCc1cccc(CCO)c1` had a melting point of 264 °C. As for `Oc1c(-c2ccccn2)n(N2CCCCC2)c2ccccc12`, the melting point came out at 185 °C.

As to `CCCCc1ccc(C(=O)O)nc1`, the melting point was 97 °C. `CC(=O)/C=C/c1cc(N(C)C)ccc1Cc1ccc(N(C)C)cc1I` returned a melting point of 164 °C. `Cn1c(Br)nc(C(=O)O)c1C(=O)O` registered a melting point of 160 °C. `O=C(CBr)c1cc2cc(Br)ccc2o1` returned a melting point of 140 to 141 °C.

Take `NC(Cc1n[nH]c2ccccc12)C(=O)O` (centres undefined): the melting point stood at 240 °C. In the case of `Cc1ccc(-c2c(C#N)c(=O)n3c(sc4ccccc43)c2C(N)=O)cc1`, the melting point was 199 °C. For the compound `COC(=O)c1cc(C)ccc1O`, the melting point is -1 °C.
